The subject of data set [1] is Intraocular Pressure (IOP) of Rabbits. Nature of the data set: Effect on the Intraocular Pressure (IOP) of Rabbits. In kind it is in vivo, rabbit (male New Zealand albino). How it is done: The animals were kept in individual cages with free access to food and water. Intraocular pressure was measured using a Digilab model 30R pneumatonometer. The pneumatonometer readings were checked at least twice a day using the Digilab calibration verifier. All measurements were obtained from unrestrained, unanesthetized rabbits. One drop of 0.5% propacaine (Ophthetic-Allergen Pharmaceuticals, Inc.) diluted 1:2 with saline was instilled in each eye immediately prior to IOP measurement. Drugs were administered as 1 or 2.5% solution in buffer pH 7.4 or in saline in both eyes of a group of at least four rabbits. Another group of at least three rabbits served as control and was administered the carrier only. […] Values are given as means ± standard error (S.E.) of the mean. The significance of the change was determined using the student's t-test.

For data set [2], the system named is ocular tissues of rabbits. Nature of the data set: In vivo distribution-metabolism in ocular tissues of rabbits. Conditions: rabbit, in vivo. As for the experimental part:
Adult male New Zealand albino rabbits weighing 2.5-3.5 kg were used. Standard doses of 100 μl of 1% solution of the drugs in saline solution were administered topically to both eyes of each rabbit. After appropriate time intervals (30, 60 and 120 minutes), the animals were sacrificed. Aqueous humor was obtained by making a single puncture at the limbus using a 25 g×5/8" needle attached to 1 cm^3 syringe. Then the cornea and the iris-ciliary body were isolated. The tissues were pooled and homogenized using a Tekmar SDT tissuemizer in ice cold perchloric acid (0.05M) which contained 0.05% sodium metabisulfite as antioxidant. Samples were then rehomogenized in CH3 OH to prepare 10% homogenates, transferred to micro-filters and centrifuged for 20 minutes at 10000 r/minute to precipitate proteins. Aqueous humor was analyzed as such without any further dilution. Aliquots of 5-20 μl of the 10% tissue homogenate samples were analyzed by HPLC.

Setting [3] is: Table 3, 1% solution, time zero.

Structures can show the parent of a compound that is named as a salt.

In the case of `CC(C)(C)NCC(O)COc1nsnc1N1CCOCC1` (stereo not drawn) [Timolol maleate 1b, reference compound], the “% change after treatment (IOP)” value in data set [1] (Table 3, 1% solution, 30 min.) was -10.93%; in data set [1] (Table 3, 1% solution, 1 hr.), 6.65%; in data set [1] (Table 3, 1% solution, 2 hr.) it was 6.78%; in data set [1] (Table 3, 1% solution, 3 hr.), 14.35%; in data set [1] (Table 3, 1% solution, 4 hr.) it was 14.77%; in data set [1] (Table 3, 1% solution, 5 hr.), 16.92%. Further, the “% change after treatment (IOP)” value was determined as 12.37% in data set [1] (Table 3, 1% solution, 6 hr.); 9.80% in data set [1] (Table 3, 1% solution, 8 hr.); 0.00% in data set [1] (setting [3]). In addition, the “IOP, drug-treated” value in data set [1] (Table 3, 1% solution, 30 min.) is given as 26.00 ± 1.23 mm/Hg; in data set [1] (Table 3, 1% solution, 1 hr.) it was 27.25 ± 1.12 mm/Hg; in data set [1] (Table 3, 1% solution, 2 hr.) it was 27.21 ± 0.58 mm/Hg; in data set [1] (Table 3, 1% solution, 3 hr.), 25.00 ± 0.87 mm/Hg; in data set [1] (Table 3, 1% solution, 4 hr.), 24.88 ± 1.00 mm/Hg; in data set [1] (Table 3, 1% solution, 5 hr.) it was 24.25 ± 1.18 mm/Hg. The “IOP, drug-treated” value in data set [1] (Table 3, 1% solution, 6 hr.) is recorded as 25.58 ± 0.85 mm/Hg; in data set [1] (Table 3, 1% solution, 8 hr.), 26.33 ± 0.40 mm/Hg; in data set [1] (setting [3]) it was 29.19 ± 0.78 mm/Hg.

For `CC(C)(C)NCC(O)COc1cccc2c1CCC(=O)N2` (stereo not drawn) [carteolol], the “detection of parent β-adrenergic antagonist in eye compartments” value in data set [2] is “could not be found in any of the eye compartments”.

In the case of `CC(C)NCC(O)COc1cccc2ccccc12` (stereo not drawn) [Propranolol HCl 1a, reference compound], the “% change after treatment (IOP)” value is given as -9.10% in data set [1] (1% solution, 30 min.); -10.39% in data set [1] (1% solution, 60 min.); -5.52% in data set [1] (1% solution, 2 hrs.); -11.04% in data set [1] (1% solution, 3 hrs.); -8.44% in data set [1] (1% solution, 4 hrs.); -5.84% in data set [1] (1% solution, 6 hrs.). The “% change after treatment (IOP)” value is recorded as -1.95% in data set [1] (1% solution, 8 hrs.); 0.00% in data set [1] (1% solution, time zero); “+8.66%” in data set [1] (2.5% solution, 30 min.); “+9.84%” in data set [1] (2.5% solution, 60 min.); “+1.18%” in data set [1] (2.5% solution, 2 hrs.); “+1.18%” in data set [1] (2.5% solution, 3 hrs.). The “% change after treatment (IOP)” value in data set [1] (2.5% solution, 4 hrs.) is recorded as “+0.79%”; in data set [1] (2.5% solution, 6 hrs.), 0.00%; in data set [1] (2.5% solution, 8 hrs.), -0.79%; in data set [1] (2.5% solution, time zero), 0.00%. In addition, the “IOP, treated” value worked out at 28.0 ± 0.56 mm/Hg in data set [1] (1% solution, 30 min.); 27.6 ± 0.62 mm/Hg in data set [1] (1% solution, 60 min.); 29.1 ± 0.38 mm/Hg in data set [1] (1% solution, 2 hrs.); 27.4 ± 0.54 mm/Hg in data set [1] (1% solution, 3 hrs.); 28.2 ± 0.48 mm/Hg in data set [1] (1% solution, 4 hrs.); 29.0 ± 0.45 mm/Hg in data set [1] (1% solution, 6 hrs.). For the same molecule, the “IOP, treated” value in data set [1] (1% solution, 8 hrs.) is on record as 30.2 ± 0.43 mm/Hg; in data set [1] (1% solution, time zero) it was 30.8 ± 0.40 mm/Hg; in data set [1] (2.5% solution, 30 min.), 27.6 ± 0.56 mm/Hg; in data set [1] (2.5% solution, 60 min.) it was 27.9 ± 0.60 mm/Hg; in data set [1] (2.5% solution, 2 hrs.), 25.7 ± 0.55 mm/Hg; in data set [1] (2.5% solution, 3 hrs.), 25.7 ± 0.39 mm/Hg. The “IOP, treated” value in data set [1] (2.5% solution, 4 hrs.) turned out to be 25.6 ± 0.46 mm/Hg; in data set [1] (2.5% solution, 6 hrs.), 25.4 ± 0.54 mm/Hg; in data set [1] (2.5% solution, 8 hrs.) it was 25.2 ± 0.68 mm/Hg; in data set [1] (2.5% solution, time zero), 25.4 ± 0.56 mm/Hg.

The values above are taken from patent US5017618A, “Labile derivatives of ketone analogs of 3-substituted-1-alkylamino-2-propanols and their use as beta-adrenergic blockers” (priority 1989, dated 1991).
